Measured values: patent US12358902B2, “5-(2,5-bis(4-chloro-2-isopropylphenyl)thiophen-3-yl)-1H-tetrazole for the topical treatment of bacterial infections” (DENOVAMED INC., priority 2017, dated 2025)
Values after ≈ are worked out from the molar mass of the structure shown.

Legend:
[1] = system: S. aureus MRSA USA300 epidemic strain; experiment: broth microdilution MIC (CLSI); type: cell-based; settings: Staphylococcus aureus; S. aureus MRSA USA300 epidemic strain; read-out: Antibacterial activity (MIC)
Protocol: Using a broth microdilution assay according to Clinical Laboratory Standards Institute (CSLI) guidelines, we tested 5-(2,5-bis(4-chloro-2-isopropylphenyl)thiophen-3-yl)-1H-tetrazole (“Test Article” in below table) to establish MICs against a broad range of MDR bacteria and noted substantive activity versus methicillin-resistant Staphylococcus aureus (MRSA), vancomycin-resistant Enterococcus (VRE) and Streptococcus spp. Antimicrobial susceptibility testing was performed by a microdilution broth assay according to CLSI guidelines. The inoculum was prepared from stationary-phase cultures diluted in water. Microtiter plate wells received aliquots of 100 μL of the compound diluted in Mueller-Hinton II cation adjusted media. The final concentration of compound typically ranged from 250 to 0.125 μg/ml in serial two-fold dilutions. In addition to the test compound, growth and sterility controls were included, along with DMSO vehicle control rows. The microtiter plates were inoculated with 5×10^5 bacteria and incubated overnight at 35° C. in a humidified atmosphere.

[2] = dermal pharmacokinetics on full thickness human cadaver skin (Franz cells); type: in vitro ADME; settings: 2% w/w in GLAXAL BASE
Text: Full thickness human skin was taken from the torso of a post-mortem human donor and stores at −80 degrees Celsius. On the day of the study, skin pieces were thawed for at least […] at room temperature in saline, then divided into individual pieces of approximately 2 cm length×2 cm width from which seven pieces of full thickness skin was selected. Approximately ⅔ of the width of the hypodermis layer was trimmed in order to mount the selected pieces into Franz cells. Receiver buffer was prepared (Krebs-Ringer bicarbonate buffer containing 10 mM HEPES, 15 mM sodium bicarbonate, and 1.2 mM calcium chloride; adjusted to pH 7.4 and fortified with 0.1% sodium azide and 1% bovine serum albumin). Each piece was equilibrated for 30 min with 12 mL of receiver buffer at 32 degrees Celsius by a water-jacket/stirring module running at 600 rpm. Transepithelial water loss was read for each piece after 30 mins using a vapometer. Exposed surface area of the piece was 1.77 square cm.
Approximately 300 ul of 5-(2,5-bis(4-chloro-2-isopropylphenyl)thiophen-3-yl)-1H-tetrazole formulated in 2% w/w GLAXAL BASE™ (Emollient Cream) was applied directly through syringe on top of each piece. Receiver samples were taken from the receiver compartment of each Franz cell at 3, 6, 12, 18, and 24 hours and replaced with an equal volume of fresh, warm buffer to maintain sink conditions. At the end of 24 hours, the bulk amount of formulation remaining on each piece of skin was wiped using cotton tips, stored together in a dry vial for analysis. Epidermis and dermis were then separated gently using forceps after a brief heat treatment at 60 degrees Celsius for no longer than 2 minutes. Each layer was then blotted dry, weighted and stored in separate glass vials. All samples were stored at −80 degrees Celsius until analysis by LC/MS-MS.
The cumulative concentrations of 5-(2,5-bis(4-chloro-2-isopropylphenyl)thiophen-3-yl)-1H-tetrazole that permeated at each time point were calculated by the sum of the measured concentration at that time point plus 1/12 of the measured concentrations at the previous time points (since 1 mL out of the 12 mL total receiver volume is withdrawn and replaced each time). The flux values over the course of the 24 hour permeation period were calculated from the slope of the linear portion of the curve. Flux was represented by the equation Flux=d[(Cr-T×Vr)/dt/A where Cr-T is the cumulative concentration at each time point (ng/mL); Vr is 12 mL; t is duration in hours; and A is the surface area of 1.77 square cm.

[3] = system: USA100 MRSA strain; experiment: bactericidal activity; type: cell-based
[4] = system: MRSA (ATCC #33591); experiment: rabbit ischemic wound model; type: in vivo, New Zealand white rabbits
Protocol: 5-(2,5-bis(4-chloro-2-isopropylphenyl)thiophen-3-yl)-1H-tetrazole was tested for its efficacy against infection in the rabbit ischemic wound model, the gold standard animal model mimicking human DUI. In this model, the ear is made ischemic by division of central and rostral nutrient arteries of New Zealand white rabbits. New Zealand White rabbits were employed for this study and their husbandry and experimental manipulation adhered to standard Guides for the Care and Use of Laboratory Animals (2001). An incision was made to the level of bare cartilage at the base of the ear and followed by injection intradermally with epinephrine to obtain vasoconstriction and aid with skin detachment. Skin is separated from the underlying perichondrium and removed with a 6.0 mm aortic biopsy punch. Food and water were given ad libidum and animals were acclimatized for 7 days with photoperiods of alternating 12 h light and dark provided, along with analgesic (BUPRENEX™ (buprenorphine) 0.02 mg/kg sc) and anaesthesia (isoflurane (0.5-5% with oxygen carrier 0.5-2 L/min) during procedures.
An ischemia wound healing model was conducted surgically. Each wound was inoculated with 50 μl of 2×10^7 CFU/ml MRSA (ATCC #33591) and dressed. After one day, wounds were treated with either 50 μl control cream containing vehicle (N=4), 50 μl containing mupirocin (N=4), or 50 μl cream containing 5-(2,5-bis(4-chloro-2-isopropylphenyl)thiophen-3-yl)-1H-tetrazole (N=8) daily. Clinical observations were performed on days 1, 3, 5, 7, 10 and 14. Wounds were assessed and observations recorded using the Draize scoring system. Digital photographs of each wound were obtained and documented.
On day 14 post-wounding, under anesthesia, the animals were euthanized with an intravenous injection of BEUTHANASIA-D™ ([…] and phenytoin sodium) at a dosage of 150 mg/kg of body weight. Specimens including the entire wound, along with approximately 2-3 mm of the normal unwounded skin margins were harvested. Each ear wound specimen was sectioned into halves. For one half of the wound, the wound was placed into a container with 10% neutral buffered formalin and processed for routine histological evaluation. Wound organization was scored for four parameters on a scale of 0-4 at the wound site for inflammation, granulation, angiogenesis, and epithelialization. Wounds were characterized in a blinded manner by a board certified member of the College of American Pathologists. The other half of the wound was weighed (mg) in a sterile Petri dish, then placed in a sterile disposable tissue grinder and homogenized for quantitative microbiology. The tube containing the ground tissue sample was filled with 5 ml 0.85% sterile saline. Five 1:10 serial dilutions were then prepared with 0.5 ml aliquots and 4.5 ml of sterile saline per aliquot. Subsequently, 0.1 ml of the homogenate and each dilution was drop plated on trypticase soy agar and placed in an incubator at 37° C. The number of viable organisms per wound was recorded as cfu/gram of tissue.

[5] = system: Clostridium spp.; experiment: activity against Clostridium spp.; type: cell-based
[6] = system: mupirocin resistant strains of E. faecalis VRE; experiment: activity against mupirocin resistant strains; type: cell-based
[7] = system: mupirocin resistant strains of S. epidermidis; experiment: activity against mupirocin resistant strains; type: cell-based
[8] = end of 24 hour permeation, LC-MS/MS
[9] = topical daily, day 14, compared to the control

Compound: CC(C)c1cc(Cl)ccc1-c1cc(-c2nnn[nH]2)c(-c2ccc(Cl)cc2C(C)C)s1 [Test Article, 5-(2,5-bis(4-chloro-2-isopropylphenyl)thiophen-3-yl)-1H-tetrazole]
- MIC [1]: 0.5 µg/mL (≈ 1.09 µM)
- Flux from top through to bottom of skin ([2]; 24 hour permeation period): less than 0.141 ng/hr/cm^2
- compound in the receiver samples ([2]; end of 24 hour permeation period, lower limit of detection 0.5 ng/mL): no detectable
- level in dermis [2, 8]: 0.821±0.469 ng per mg tissue
- level in epidermis [2, 8]: 163±58.0 ng per mg tissue
- level in hypodermis [2, 8]: 1.86±1.04 ng per mg tissue
- bactericidal activity [3]: rapidly bactericidal
- percent wound contraction over time (FIG. 1) ([4]; topical daily to day 14, p<0.001 vs control, p<0.03 vs mupirocin): better than the mupirocin treated group
- effect on erythema and edema ([4]; topical daily, Draize scoring): positive effect
- CFU drop [4, 9]: 4 log
- reduction in bacterial survival [4, 9]: > 99%
- wound healing and epithelialization ([4]; topical daily, versus mupirocin group): significantly better than the mupirocin group
- activity [5]: retained activity
- activity [6]: retained activity
- activity [7]: retained activity
